Reference: ChEMBL document CHEMBL1201862, “PubChem BioAssay data set” (2004)
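Compound exposure: 48 hours, 5 concentrations, 96-well plates. GI50 marks 50% less growth.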 Calls of active or inactive are those of the source. No stated cut-off is given here; in the data, active = GI50 up to about 1.1 µM and inactive = higher.

Tests used:
Assay in all cases: inhibition of tumour cell growth, NCI panel, 48 h
COLO 205 = tested on: COLO 205
Hs-578T = tested on: Hs-578T
KM12 = tested on: KM12
NCI-H226 = tested on: NCI-H226
MDA-N = tested on: MDA-N
DU-145 = tested on: DU-145
HT-29 = tested on: HT-29
NCI-H522 = tested on: NCI-H522
CAKI-1 = tested on: CAKI-1
PC-3 = tested on: PC-3
HCT-15 = tested on: HCT-15
OVCAR-5 = tested on: OVCAR-5
TK-10 = tested on: TK-10
U-251 = tested on: U-251
SF-295 = tested on: SF-295
OVCAR-8 = tested on: OVCAR-8
SNB-19 = tested on: SNB-19
T47D = tested on: T47D
786-0 = tested on: 786-0
HL-60 = tested on: HL-60
SF-268 = tested on: SF-268
CCRF-CEM = tested on: CCRF-CEM
OVCAR-4 = tested on: OVCAR-4
SK-MEL-28 = tested on: SK-MEL-28
SK-MEL-2 = tested on: SK-MEL-2
MDA-MB-435 = tested on: MDA-MB-435
EKVX = tested on: EKVX
RXF 393 = tested on: RXF 393
HCT-116 = tested on: HCT-116
M14 = tested on: M14
A549 = tested on: A549
SK-MEL-5 = tested on: SK-MEL-5
UACC-62 = tested on: UACC-62
NCI/ADR-RES = tested on: NCI/ADR-RES
SR = tested on: SR
K562 = tested on: K562
IGROV-1 = tested on: IGROV-1
SK-OV-3 = tested on: SK-OV-3
NCI-H23 = tested on: NCI-H23
BT-549 = tested on: BT-549
Malme-3M = tested on: Malme-3M
SW-620 = tested on: SW-620
SF-539 = tested on: SF-539
MOLT-4 = tested on: MOLT-4
NCI-H460 = tested on: NCI-H460
SNB-75 = tested on: SNB-75
SN12C = tested on: SN12C
UO-31 = tested on: UO-31
ACHN = tested on: ACHN
MDA-MB-231 = tested on: MDA-MB-231
A498 = tested on: A498
UACC-257 = tested on: UACC-257
RPMI-8226 = tested on: RPMI-8226
HOP-62 = tested on: HOP-62
OVCAR-3 = tested on: OVCAR-3
LOX IMVI = tested on: LOX IMVI
HOP-92 = tested on: HOP-92
HCC 2998 = tested on: HCC 2998
MCF7 = tested on: MCF7

In the case of CN(C)c1ccc(/N=N/c2ccc3[nH]cnc3c2)cc1, the GI50 (COLO 205) is reported as 19.3 µM (inactive), the GI50 (Hs-578T) is reported as 34.7 µM (inactive) and the GI50 (KM12) is reported as 29.2 µM (inactive). The GI50 (NCI-H226) was 34 µM (inactive), the GI50 (MDA-N) was 26.9 µM (inactive) and the GI50 (DU-145) was 27.4 µM (inactive). The GI50 (HT-29) was 16.1 µM (inactive), the GI50 (NCI-H522) was 19.3 µM (inactive) and the GI50 (CAKI-1) was 42.2 µM (inactive). For the same molecule, the GI50 (PC-3) was 33.1 µM (inactive), the GI50 (HCT-15) was 22.1 µM and the GI50 (OVCAR-5) was 26.5 µM (inactive). The GI50 (TK-10) was 22.5 µM (inactive), the GI50 (U-251) was 24.5 µM (inactive) and the GI50 (SF-295) was 24.4 µM (inactive). For the same molecule, the GI50 (OVCAR-8) was 38.4 µM (inactive), the GI50 (SNB-19) was 41.8 µM (inactive) and the GI50 (T47D) was 29.5 µM (inactive). For the same molecule, the GI50 (786-0) was 18.2 µM (inactive), the GI50 (HL-60) was 14.7 µM (inactive) and the GI50 (SF-268) was 20.6 µM (inactive). For the same molecule, the GI50 (CCRF-CEM) was 19.4 µM (inactive), the GI50 (OVCAR-4) was 24.2 µM (inactive) and the GI50 (SK-MEL-28) was 11.5 µM (inactive). The GI50 (SK-MEL-2) was 58.7 µM (inactive), the GI50 (MDA-MB-435) was 19.5 µM (inactive) and the GI50 (EKVX) was 33.5 µM (inactive). The GI50 (RXF 393) was 27.1 µM (inactive), the GI50 (HCT-116) was 18 µM (inactive) and the GI50 (M14) was 21.4 µM (inactive). The GI50 (A549) was 29.7 µM (inactive), the GI50 (SK-MEL-5) was 30.3 µM (inactive) and the GI50 (UACC-62) was 24.8 µM (inactive). The GI50 (NCI/ADR-RES) was 41 µM (inactive), the GI50 (SR) was 25.1 µM (inactive) and the GI50 (K562) was 19.5 µM (inactive). For the same molecule, the GI50 (IGROV-1) was 34.5 µM (inactive), the GI50 (SK-OV-3) was > 10 µM (inactive) and the GI50 (NCI-H23) was 45.5 µM (inactive). The GI50 (BT-549) was 32.5 µM (inactive), the GI50 (Malme-3M) was 25.2 µM (inactive) and the GI50 (SW-620) was 29.6 µM (inactive). For the same molecule, the GI50 (SF-539) was 17.8 µM (inactive), the GI50 (MOLT-4) was 21.8 µM (inactive) and the GI50 (NCI-H460) was 18.8 µM (inactive). The GI50 (SNB-75) was 31.6 µM (inactive), the GI50 (SN12C) was 22 µM (inactive) and the GI50 (UO-31) was 28.4 µM (inactive). The GI50 (ACHN) was 19 µM (inactive), the GI50 (MDA-MB-231) was 15.1 µM (inactive) and the GI50 (A498) was 20.4 µM (inactive). For the same molecule, the GI50 (UACC-257) was 23 µM (inactive) and the GI50 (RPMI-8226) was 19.5 µM (inactive).
For CC(=O)N1CCc2c([nH]c3ccc(Br)cc23)C1c1ccccc1 (centres undefined), the GI50 (COLO 205) was > 10 µM (inactive), the GI50 (Hs-578T) was > 10 µM (inactive) and the GI50 (KM12) was > 3.41 µM (inactive). The GI50 (NCI-H226) was > 10 µM (inactive), the GI50 (MDA-N) was 2.61 µM (inactive) and the GI50 (DU-145) was > 10 µM (inactive). For the same molecule, the GI50 (HT-29) was 5.37 µM (inactive), the GI50 (NCI-H522) was > 7.82 µM (inactive) and the GI50 (CAKI-1) was > 9.53 µM (inactive). For the same molecule, the GI50 (PC-3) was 1.12 µM (active), the GI50 (HCT-15) was 0.194 µM and the GI50 (OVCAR-5) was > 10 µM (inactive). The GI50 (TK-10) was > 10 µM (inactive), the GI50 (U-251) was 3.69 µM (inactive) and the GI50 (SF-295) was 2.4 µM (inactive). For the same molecule, the GI50 (OVCAR-8) was > 5.07 µM (inactive), the GI50 (SNB-19) was > 10 µM (inactive) and the GI50 (T47D) was > 10 µM (inactive). For the same molecule, the GI50 (786-0) was 3.28 µM (inactive), the GI50 (HL-60) was 2.55 µM (inactive) and the GI50 (SF-268) was > 9.02 µM (inactive). For the same molecule, the GI50 (CCRF-CEM) was 1.47 µM (inactive), the GI50 (OVCAR-4) was > 10 µM (inactive) and the GI50 (SK-MEL-28) was > 10 µM (inactive). The GI50 (SK-MEL-2) was > 10 µM (inactive), the GI50 (MDA-MB-435) was 2.69 µM (inactive) and the GI50 (EKVX) was > 10 µM (inactive). For the same molecule, the GI50 (RXF 393) was > 10 µM (inactive), the GI50 (HOP-62) was 7.55 µM (inactive) and the GI50 (HCT-116) was 1.11 µM (active). For the same molecule, the GI50 (OVCAR-3) was > 10 µM (inactive), the GI50 (M14) was > 10 µM (inactive) and the GI50 (A549) was 0.912 µM (active). For the same molecule, the GI50 (SK-MEL-5) was 2.4 µM (inactive), the GI50 (LOX IMVI) was 2 µM (inactive) and the GI50 (UACC-62) was > 7.13 µM (inactive). The GI50 (NCI/ADR-RES) was 4.16 µM (inactive), the GI50 (HOP-92) was > 10 µM (inactive) and the GI50 (SR) was 0.733 µM (active). For the same molecule, the GI50 (K562) was 0.752 µM (active), the GI50 (IGROV-1) was > 7.33 µM (inactive) and the GI50 (SK-OV-3) was > 7.71 µM (inactive). The GI50 (HCC 2998) was 9.95 µM (inactive), the GI50 (BT-549) was 7.03 µM (inactive) and the GI50 (Malme-3M) was > 10 µM (inactive). The GI50 (SW-620) was 2.62 µM (inactive), the GI50 (SF-539) was > 6.81 µM (inactive) and the GI50 (MOLT-4) was 0.697 µM (active). For the same molecule, the GI50 (NCI-H460) was 0.522 µM (active), the GI50 (SNB-75) was 7.96 µM (inactive) and the GI50 (MCF7) was 2.75 µM (inactive). The GI50 (UO-31) was > 10 µM (inactive), the GI50 (ACHN) was > 7.36 µM (inactive) and the GI50 (A498) was > 10 µM (inactive). For the same molecule, the GI50 (UACC-257) was > 10 µM (inactive) and the GI50 (RPMI-8226) was 2.29 µM (inactive).
